Read-outs that look alike come from different tables or passages of the source.
Legend:
[1] = system: MCF-7 breast cancer cell line; settings: cited from earlier work; for Decrease in cell numbers / cell viability: MCF-7, 20 μg/ml for 8 days, O'Shea et al., 1999
[2] = dairy cows, cited from earlier work
SW480 cells = settings: cited from earlier work; for Reduction of cell viability: SW480, Miller et al. (2002); for Effect on SW480 cancer cells: 2003
[3] = system: human colon cancer cells SW480; test: Anti-proliferative activity of fermented oils, MTS cell viability
Experimental: The probiotic strain Lactobacillus paracasei ssp. paracasei NFBC 338 (Lb. paracasei NFBC 338) was previously isolated from the human gastrointestinal tract (GIT), and obtained from University College Cork, Ireland under a restricted materials transfer agreement. Lb. paracasei NFBC 338 was routinely cultured overnight (˜17 h) in MRS broth (Oxoid Ltd., Hampshire, UK) and incubated at 37° C. under anaerobic conditions using anaerobic jars containing Anaerocult A gas packs (Merck, Darmstedt, Germany). L. lactis carrying the plasmids pNZ44 were routinely cultured in the presence of chloramphenicol (5 μg/ml) as a selective marker. Lb. paracasei NFBC harboring the vector pMSP3535 were routinely cultured with erythromycin (10 μg/ml) as selective marker. E. coli TOP 10 (Invitrogen) harbouring the plasmid pNZ44 was cultured in LB (Luria-Bertani)-media supplemented with chloramphenicol (20 μg/ml). Human colon cancer cells were obtained from the American Type Culture Collection (ATCC, Manassas, Va., USA). The t10, c12 CLA isomer (98%+purity) was obtained from Matreya (Matreya Inc., PA, USA;). Cell culture media and supplements were purchased from Sigma Aldrich Ireland Ltd. (Dublin, Ireland), unless otherwise stated. SW480 cells were maintained in Dulbecco's […] (DMEM) supplemented with 5% (v/v) fetal bovine serum, 0.2 mM L-glutamine, 1 mM HEPES and 1 unit/ml penicillin and streptomycin. SW480 cells were grown in 96 well plates and maintained at 37° C. in a humidified atmosphere and a pH of 7.2-7.4 by a required flow of 95% air and 5% CO2.
To examine the anti-proliferative activity of the oils extracted following fermentation of the cultures (L. lactis pNZ44-coPAI and E. coli pNZ44-coPAI) in respective media containing linoleic acid (0.5 mg/ml), human colon cancer cells SW480 were cultured in the presence of different concentrations of the fermented oils. Initially, 1×10^4 cells were seeded in wells and cultured for 24 h at 37° C. to allow the cells to adhere to the surface prior to treatment with 5-20 μg t10, c12 CLA (from fermented oils and t10, c12 CLA standards in ethanol) and 5-25 μg linoleic acid (control unfermented oil and Sigma standard)/ml of media. […] Control flasks were supplemented with ethanol to a final concentration of 0.1% (v/v). Following incubation for 5 days, cell viability was measured and relative cell number were determined using the MTS method (Promega Corporation, Madison, Wis., USA), a colorimetric method for determining the number of viable cells in proliferation or cytotoxicity assays subsequent to incubation with MTS tetrazolium compound. Following incubation with MTS for 2 h, the absorbance was recorded at 492 nm with a 96-well plate reader. Cell viability (%) after treatment is expressed relative to the ethanol control, which represented 100%.
All figures are related to ethanol controls=100% cell viability.

## CCCCCC/C=C/C=C\CCCCCCCC(=O)O [c9, t11 CLA, cis-9, trans-11-octadecadienoic acid]
[1]
  Decrease in cell numbers / cell viability: 60%
[2]; abomasal infusion
  Effect on milk fat: no effect
SW480 cells
  Reduction of cell viability: 40-52%

## CCCCC/C=C\C/C=C\CCCCCCCC(=O)O [control-unfermented LA]
[3]; SW480, 5-25 μg/ml linoleic acid
  Effect on the cell viability: only a minor effect

## CCCCC/C=C\C/C=C\CCCCCCCC(=O)O [linoleic acid, 9 cis, 12 cis-octadecadienoic acid]
[3]; Homo sapiens, SW480, 120 h, read-out: Cell viability
  viability at 25 µg/mL: 93.2%
[3]; Student's t test
  Difference in cell viability versus control-linoleic acid (unfermented oil): No significant difference
SW480 cells; 16.9 μg/ml media (60.2 μM), Miller et al.
  Effect on SW480 cancer cells: slightly proliferative effect
SW480 cells; 42.8 μg/ml media (152.5 μM), Miller et al.
  Effect on SW480 cancer cells: anti-proliferative effect
SW480 cells; SW480, same amount (16 μg/ml), 4 days
  Increase of viability: 23%

## CCCCC/C=C\C=C\CCCCCCCCC(=O)O [t10, c12 CLA, trans-10, cis-12 octadecadienoic acid]
[1]
  Decrease in cell numbers / cell viability: 15%
[1]; MCF-7, 4 days incubation with 16 μg/ml, Miller et al., 2001
  Reduction of viability: 50-60%
[2]; 4 days abomasal infusion
  Decrease in milk fat yield: 44%
  Reduction in milk fat percentage: 42%
[3]; 10-15 μg/ml (p<0.001) and 20 μg/ml (p<0.01)
  Difference in cell viability versus L. lactis t10, c12 CLA: significant difference
[3]; at any concentration, Student's t test
  Difference in cell viability versus E. coli t10, c12 CLA (fermented oil): no significant difference
SW480 cells; SW480, 4 days incubation with 16 μg/ml, Miller et al., 2001
  Reduction of viability: 50-60%
SW480 cells
  Reduction of cell viability: 47-61%

Source: patent publication US20090105341A1, “PROCESS FOR THE PRODUCTION OF TRANS-10, CIS 12 OCTADECADIENOIC ACID” (Teagasc Dairy Products Research Centre, priority 2005, published 2009)
